From patent publication US11066369B2, “N-(pyridin-2-yl)pyridine-sulfonamide derivatives and their use in the treatment of disease” (Novartis AG, priority 2016, dated 2021)
Where a name gives a salt, the structure may show the parent alone.

How the values were obtained:
[1] = target: T1, horseradish peroxidase (HRP) tagged delF508-CFTR (Homo sapiens, UniProt P13569, DEL508-508); assay: Measurement of delF508-CFTR-HRP surface expression in CFBE41o- cells; assay type: cell-based; details: delF508-CFTR-HRP surface expression, CFBE41o- cells; for Emax: read-out: DelF508-CFTR-HRP Amax %; for EC50: read-out: DelF508-CFTR-HRP EC50;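 on DelF508-CFTR-HRP Amax %: percent efficacy relative to reference corrector lumacaftor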
T1 construct: expressed in transfected cells
T1 sequence (P13569 with tags, fused parts or gaps DEL508-508): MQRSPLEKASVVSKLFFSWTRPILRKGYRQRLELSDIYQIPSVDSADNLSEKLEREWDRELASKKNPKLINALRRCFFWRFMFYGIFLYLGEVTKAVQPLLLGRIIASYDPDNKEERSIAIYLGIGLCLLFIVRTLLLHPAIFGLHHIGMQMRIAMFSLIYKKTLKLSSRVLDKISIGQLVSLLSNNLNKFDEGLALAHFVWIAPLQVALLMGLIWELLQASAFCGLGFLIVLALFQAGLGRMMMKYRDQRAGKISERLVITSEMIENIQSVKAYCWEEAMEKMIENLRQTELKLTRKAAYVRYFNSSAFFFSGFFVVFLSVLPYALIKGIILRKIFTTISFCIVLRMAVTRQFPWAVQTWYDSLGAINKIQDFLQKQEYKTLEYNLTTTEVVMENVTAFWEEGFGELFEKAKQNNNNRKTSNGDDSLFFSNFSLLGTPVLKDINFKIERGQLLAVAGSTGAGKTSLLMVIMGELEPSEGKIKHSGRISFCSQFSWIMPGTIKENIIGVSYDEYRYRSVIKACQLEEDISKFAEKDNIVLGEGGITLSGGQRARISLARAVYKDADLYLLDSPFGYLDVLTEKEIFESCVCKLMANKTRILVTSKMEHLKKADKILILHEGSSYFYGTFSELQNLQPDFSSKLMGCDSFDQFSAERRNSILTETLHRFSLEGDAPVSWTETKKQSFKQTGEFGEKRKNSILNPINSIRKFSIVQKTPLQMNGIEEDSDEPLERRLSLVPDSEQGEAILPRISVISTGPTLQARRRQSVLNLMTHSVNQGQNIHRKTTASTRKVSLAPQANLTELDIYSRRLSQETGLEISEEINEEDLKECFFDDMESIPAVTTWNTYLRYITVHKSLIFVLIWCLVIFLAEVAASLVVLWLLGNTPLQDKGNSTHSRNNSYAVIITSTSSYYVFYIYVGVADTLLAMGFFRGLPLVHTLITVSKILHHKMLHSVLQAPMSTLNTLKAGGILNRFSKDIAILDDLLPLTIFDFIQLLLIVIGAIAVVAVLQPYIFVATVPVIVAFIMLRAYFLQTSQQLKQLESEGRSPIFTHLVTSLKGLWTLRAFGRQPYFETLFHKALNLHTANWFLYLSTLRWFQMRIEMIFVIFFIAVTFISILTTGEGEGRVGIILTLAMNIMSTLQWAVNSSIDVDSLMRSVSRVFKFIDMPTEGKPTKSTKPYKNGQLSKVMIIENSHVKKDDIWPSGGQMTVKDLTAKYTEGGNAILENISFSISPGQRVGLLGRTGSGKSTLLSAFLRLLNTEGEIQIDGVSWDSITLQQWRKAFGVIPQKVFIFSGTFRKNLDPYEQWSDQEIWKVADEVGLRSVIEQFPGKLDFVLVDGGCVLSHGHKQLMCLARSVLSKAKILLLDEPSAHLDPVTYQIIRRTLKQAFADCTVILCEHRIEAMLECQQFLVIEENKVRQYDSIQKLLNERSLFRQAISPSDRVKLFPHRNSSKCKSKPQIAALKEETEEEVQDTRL
Summary of the method: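 CFBE41o- bronchial epithelial cells stably expressing delF508-CFTR with HRP in the fourth extracellular loop; expression induced 48h with 500 ng/mL doxycycline, then compounds added (top 10 μM, 10-point 3-fold series, ≤0.5% DMSO) for 24h at 37° C. Surface HRP measured by luminescence with cell-impermeant substrate; EC50 from logistic fit of triplicates, plate-normalized to lowest concentration; efficacy also relative to a reference corrector.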

delF508-CFTR = target: T2, delF508-CFTR (Homo sapiens, UniProt P13569, DEL508-508); assay: Measurement of delF508-CFTR functional activity in primary human bronchial epithelial cells (HBECs) using Multi-Transepithelial Clamp Circuit (MTECC-24) assay; assay type: cell-based; details: primary CF HBECs; for MTECC24 CFHBEC- Amax %: test compound added 24h before assay plus potentiator, relative to reference combination (2 μM corrector + 0.5 μM potentiator); for EC50: test compound added 24h before assay, in the presence of potentiator, mean of at least two replicates, read-out: MTECC24 CFHBEC- EC50
T2 construct: functional activity of the CFTR channel (Chloride ion transport) in patient derived primary human bronchial epithelial cells; host or cells: patient-derived primary human bronchial epithelial cells (delF508-CFTR)
T2 sequence (P13569 with tags, fused parts or gaps DEL508-508): as above
Summary of the method: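 Patient-derived primary delF508-CFTR HBECs, differentiated at air-liquid interface ~2 weeks, treated basolaterally with compound for 24 h, then apical and basolateral compound in HEPES pH 7.4 assay medium. Equivalent short-circuit current (Ieq) recorded on MTECC-24 with sequential amiloride, forskolin, potentiator and INH-172; normalized to 0.1% DMSO, EC50 from curve fit.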

| Compound | Emax [1] [%] | EC50 [1] [µM] | MTECC24 CFHBEC- Amax % (delF508-CFTR) [%] | EC50 (delF508-CFTR) [µM] |
| --- | --- | --- | --- | --- |
| Cc1ccccc1-c1nc(NS(=O)(=O)c2cccc(N3CCN4C[C@@H](F)C[C@@H]4C3)n2)ccc1C(F)(F)F [Example 138, 6-((7S,8aR)-7-fluorohexahydropyrrolo[1,2-a]pyrazin-2(1H)-yl)-N-(6-(o-tolyl)-5-(trifluoromethyl)pyridin-2-yl)pyridine-2-sulfonamide] | 636 | 0.681 | 108.4 | 0.0156 |
| Cc1ccc(F)cc1-c1nc(NS(=O)(=O)c2cccc(N3CCN4C[C@@H](F)CC4[C@@H]3C)n2)ccc1Cl (stereo partly drawn) [Example 135, N-(5-chloro-6-(5-fluoro-2-methylphenyl)pyridin-2-yl)-6-((1S,7S)-7-fluoro-1-methylhexahydropyrrolo[1,2-a]pyrazin-2(1H)-yl)pyridine-2-sulfonamide] | 804 | 3.44 | 95.3 | 0.013 |
| CCOC(=O)C1(C)CCN(c2cccc(S(=O)(=O)Nc3ccc(Cl)c(-c4ccccc4C)n3)n2)CC1 [Example 254, ethyl 1-(6-(N-(5-chloro-6-(o-tolyl)pyridin-2-yl)sulfamoyl)pyridin-2-yl)-4-methylpiperidine-4-carboxylate] | 620 | 2.59 | 62.2 | 0.0038 |
| Cc1cccc(C)c1-c1nc(NS(=O)(=O)c2ccnc(N)c2)ccc1Cl [Example 4, 2-amino-N-(5-chloro-6-(2,6-dimethylphenyl)pyridin-2-yl)pyridine-4-sulfonamide] | 632 | 0.912 | 52.0 | 0.0408 |
| Cc1ccccc1-c1nc(NS(=O)(=O)c2cccc(N3CCC(C)(C(=O)O)CC3)n2)ccc1Cl [Example 255, 1-(6-(N-(5-chloro-6-(o-tolyl)pyridin-2-yl)sulfamoyl)pyridin-2-yl)-4-methylpiperidine-4-carboxylic Acid] | 222 | 3.16 | 55.1 | 0.0104 |
| CO[C@H]1CCNC[C@H]1Nc1cccc(S(=O)(=O)Nc2ccc(C(F)(F)F)c(-c3ccccc3C)n2)n1 [Example 106, 6-(((3R,4S)-4-methoxypiperidin-3-yl)amino)-N-(6-(o-tolyl)-5-(trifluoromethyl)pyridin-2-yl)pyridine-2-sulfonamide Hydrochloride] | 912 | 2.58 | 106.4 | 0.0795 |
| Cc1ccccc1-c1nc(NS(=O)(=O)c2cccc(N3CCN(C(=O)OC(C)(C)C)[C@@H](CO)C3)n2)ccc1C(F)(F)F [Example 164, tert-butyl (R)-2-(hydroxymethyl)-4-(6-(N-(6-(o-tolyl)-5-(trifluoromethyl)pyridin-2-yl)sulfamoyl)pyridin-2-yl)piperazine-1-carboxylate] | 578 | 1.06 | 74.3 | 0.0495 |
| CC1(O)CN(c2cccc(S(=O)(=O)Nc3ccc(Cl)c(-c4ccc(F)cc4Cl)n3)n2)C1 [Example 213, N-(5-chloro-6-(2-chloro-4-fluorophenyl)pyridin-2-yl)-6-(3-hydroxy-3-methylazetidin-1-yl)pyridine-2-sulfonamide] | 224 | 2.49 | 78.0 | 0.0478 |
| CN[C@H]1CCN(c2cccc(S(=O)(=O)Nc3ccc(C(F)(F)F)c(-c4ccccc4C)n3)n2)C1 [Example 122, (S)-6-(3-(methylamino)pyrrolidin-1-yl)-N-(6-(o-tolyl)-5-(trifluoromethyl)pyridin-2-yl)pyridine-2-sulfonamide Hydrochloride] | 385 | 2.69 | 81.8 | 0.0271 |
| Cc1ccc(F)cc1-c1nc(NS(=O)(=O)c2cccc(N3CC(O)(CO)C3)n2)ccc1Cl [Example 235, N-(5-chloro-6-(5-fluoro-2-methylphenyl)pyridin-2-yl)-6-(3-hydroxy-3-(hydroxymethyl)azetidin-1-yl)pyridine-2-sulfonamide] | 203 | 1.97 | 57.6 | 0.182 |
| CC1(C(=O)O)CCN(c2cccc(S(=O)(=O)Nc3ccc(C(F)(F)F)c(-c4ccccc4Cl)n3)n2)CC1 [Example 238, 1-(6-(N-(6-(2-chlorophenyl)-5-(trifluoromethyl)pyridin-2-yl)sulfamoyl)pyridin-2-yl)-4-methylpiperidine-4-carboxylic Acid] | 426 | 3.46 | 59.0 | 0.0196 |
| COc1ccc(F)cc1-c1nc(NS(=O)(=O)c2cccc(N3CC(O)C3)n2)ccc1C(F)(F)F [Example 209, N-(6-(5-fluoro-2-methoxyphenyl)-5-(trifluoromethyl)pyridin-2-yl)-6-(3-hydroxyazetidin-1-yl)pyridine-2-sulfonamide] | 231 | 2.7 | 95.6 | 0.139 |
| Cc1cccc(C)c1-c1nc(NS(=O)(=O)c2cccnc2N)ccc1Cl [Example 74, 2-amino-N-(5-chloro-6-(2,6-dimethylphenyl)pyridin-2-yl)pyridine-3-sulfonamide] | 158 | 2.58 | 67.3 | 0.283 |
| Cc1ccc(F)cc1-c1nc(NS(=O)(=O)c2cccc(N3CC4CCC3CN4)n2)ccc1C(F)(F)F (centres unmarked) [Example 201, 6-(2,5-diazabicyclo[2.2.2]octan-2-yl)-N-(6-(5-fluoro-2-methylphenyl)-5-(trifluoromethyl)pyridin-2-yl)pyridine-2-sulfonamide Hydrochloride] | 570 | 2.62 | 75.9 | 0.135 |
| Nc1cccc(S(=O)(=O)Nc2ccc(Cl)c(-c3cccc(C(F)(F)F)c3)n2)n1 [Example 73, 6-amino-N-(5-chloro-6-(3-(trifluoromethyl)phenyl)pyridin-2-yl)pyridine-2-sulfonamide] | 163 | 4.24 | 64.2 | 0.135 |

More lines, now with the values ahead:

| Emax [1] [%] | EC50 [1] [µM] | MTECC24 CFHBEC- Amax % (delF508-CFTR) [%] | EC50 (delF508-CFTR) [µM] | Compound |
| --- | --- | --- | --- | --- |
| 590 | 1.96 | 78.6 | 0.022 | Cc1ccccc1-c1nc(NS(=O)(=O)c2cccc(O[C@@H]3COCC3(C)O)n2)ccc1C(F)(F)F (mixture of isomers) [Example 293, rac-6-{[(3RR,4SR)-4-hydroxy-4-methyloxolan-3-yl]oxy}-N-[6-(2-methylphenyl)-5-(trifluoromethyl)pyridin-2-yl]pyridine-2-sulfonamide] |
| – | 1.24 | 74.1 | 0.0189 | Cc1cccc(C)c1-c1nc(NS(=O)(=O)c2cccc(N[C@H]3C[C@@](C)(O)C3)n2)ccc1Cl [Example 285, N-[5-chloro-6-(2,6-dimethylphenyl)pyridin-2-yl]-6-{[(1r,3s)-3-hydroxy-3-methylcyclobutyl]amino}pyridine-2-sulfonamide] |
| 648 | 1.96 | 86.7 | 0.00204 | Cc1ccc(F)cc1-c1nc(NS(=O)(=O)c2cccc(N3CCC[C@H](C(=O)O)C3)n2)ccc1C(F)(F)F [Example 359, (3S)-1-(6-{[6-(5-fluoro-2-methylphenyl)-5-(trifluoromethyl)pyridin-2-yl]sulfamoyl}pyridin-2-yl)piperidine-3-carboxylic Acid] |
| 492 | 0.87 | 99.7 | 0.107 | CCCC1(C(=O)O)CCN(c2cccc(S(=O)(=O)Nc3ccc(C(F)(F)F)c(-c4ccccc4CC)n3)n2)CC1 [Example 351, 1-(6-{[6-(2-ethylphenyl)-5-(trifluoromethyl)pyridin-2-yl]sulfamoyl}pyridin-2-yl)-4-propylpiperidine-4-carboxylic Acid] |
| 402 | 2.64 | 49.4 | 0.0479 | Cc1ccc(F)cc1-c1nc(NS(=O)(=O)c2ccnc(N3CC(O)C3)c2)ccc1C(F)(F)F [Example 324, N-(6-(5-fluoro-2-methylphenyl)-5-(trifluoromethyl)pyridin-2-yl)-2-(3-hydroxyazetidin-1-yl)pyridine-4-sulfonamide] |
| 779 | 1.87 | 77.0 | 0.0033 | Cc1ccccc1-c1nc(NS(=O)(=O)c2cccc(N[C@@H]3CCOC[C@H]3O)n2)ccc1C(F)(F)F [Example 274, 6-(((3S,4R)-3-hydroxytetrahydro-2H-pyran-4-yl)amino)-N-(6-(o-tolyl)-5-(trifluoromethyl)pyridin-2-yl)pyridine-2-sulfonamide] |
| – | 1.19 | 93.7 | 0.0035 | Cc1ccccc1-c1nc(NS(=O)(=O)c2cccc(N[C@@H]3COCC[C@H]3O)n2)ccc1C(F)(F)F [Example 279, 6-{[(3R,4R)-4-hydroxyoxan-3-yl]amino}-N-[6-(2-methylphenyl)-5-(trifluoromethyl)pyridin-2-yl]pyridine-2-sulfonamide] |
